Measured values published in patent US11638716B2, “Compounds, compositions, and methods for the treatment of disease” (F-star Therapeutics, Inc., priority 2017, dated 2023).

Tests used:
wild type STING = molecular target: T1, wild type STING (Homo sapiens, UniProt Q86WV6, H232R); experiment: IRF/NF-kB reporter cells, wild type STING; assay type: cell-based; conditions: 20 hours
T1 construct: expressed in transfected cells; host or cells: THP1-Dual-KI-STING-R232 (made from THP-Dual-STING KO cells)
T1 sequence (Q86WV6 whole entry H232R): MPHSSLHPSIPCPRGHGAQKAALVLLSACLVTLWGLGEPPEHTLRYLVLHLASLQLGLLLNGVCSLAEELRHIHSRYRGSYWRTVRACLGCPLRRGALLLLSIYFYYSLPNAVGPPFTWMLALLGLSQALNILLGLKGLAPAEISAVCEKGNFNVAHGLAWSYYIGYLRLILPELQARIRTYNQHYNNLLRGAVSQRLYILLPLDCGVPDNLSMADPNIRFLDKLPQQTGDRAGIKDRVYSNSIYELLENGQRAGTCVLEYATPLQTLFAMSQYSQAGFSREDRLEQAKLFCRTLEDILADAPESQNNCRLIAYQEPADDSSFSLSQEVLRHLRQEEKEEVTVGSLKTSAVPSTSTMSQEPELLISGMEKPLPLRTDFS
Method: (§1) FIG. 22 depicts cells stably expressing both or either one of the reporters to measure IRF and NF-kB activity were treated with a range of concentrations of compound 2 or DMSO control for 20 hours. IRF activity was assessed using QUANTI-luc to measure levels of Lucia and NF-kB activity was determined by measure SEAP levels at 620-655 nm. % induction was calculated from fold change in luminescence/absorbance compared to DMSO treated sample. EC50 values are generated by curve fit in Xlfit.
as §1, with “FIG. 24” for “FIG. 22”, “compound 3” for “compound 2”
as §1, with “FIG. 27” for “FIG. 22”, “compound 4” for “compound 2”
Cells grown in complete media were treated with various concentrations of a compound of the disclosure or DMSO control. […] After 20 h incubation, IRF activity was assessed using QUANTI-luc to measure levels of Lucia and NF-kB activity was determined by measure SEAP levels at 620-655 nm. % induction was calculated from fold change in luminescence/absorbance compared to DMSO treated sample. […]

[1] = tested on: CT26 murine colon carcinoma; experiment: CT26 murine colon carcinoma model in female BALB/c mice; assay type: in vivo, mouse
Method: Example 4: Study to Determine the Efficacy of Compound 4 in a CT26 Murine Colon Carcinoma Model Using Female BALB/c Mice
The animals were fed ad libitum water (reverse osmosis, 1 ppm Cl) and a NIH 31 Modified and Irradiated Lab Diet consisting of 18.0% crude protein, 5.0% crude fat, and 5.0% crude fiber.
CT26 murine colon carcinoma cells were grown in RPMI-1640 medium containing 10% fetal bovine serum, 2 mM glutamine, 100 units/mL penicillin G sodium, 100 μg/mL streptomycin sulfate, and 25 μg/mL gentamicin. The cells were cultured in tissue culture flasks in a humidified incubator at 37° C., in an atmosphere of 5% CO2 and 95% air.
On the day of implantation, cultured CT26 cells were harvested during log phase growth and resuspended in phosphate buffered saline, pH 7.4 (PBS) at a concentration of 3×10^6 cells/mL. Each mouse was injected subcutaneously in the right flank with 3×10^5 tumor cells (0.1 mL cell suspension) and tumors were monitored as their volumes approached the target range of 80 to 120 mm^3. Eleven days after tumor cell implantation, on Day 1 of the study, animals were sorted into three groups (n=8/group) with individual tumor volumes of 63 to 126 mm^3, and a group mean tumor volume of 105 mm^3. Tumors were measured with a caliper twice weekly for the duration of the study. Tumor size was calculated using the formula:
[formula] wherein w is width and 1 is length, in mm, of a tumor. Tumor weight may be estimated with the assumption that 1 mg is equivalent to 1 mm^3 of tumor volume. Test Articles
Compound 4 was dissolved by adding the appropriate volume of sterile saline (vehicle) into each tube, vortexing, incubating at 37° C. for 2-5 minutes, followed by sonication, if needed. […] A fresh vial was prepared on each day of dosing.
On Day 1 of the study, three groups of BALB/c mice (n=8) began dosing according to the protocol in FIG. 20. Compound 4 and vehicle were administered intravenously (i.v.). Group 1 received vehicle on Days 1, 5, 9, and 14. Groups 2 and 3 received CMD 4 at 1 and 3 mg/kg, respectively, on Days 1, 5, 9, and 14.
The study endpoint was a tumor volume of 2000 mm^3 or Day 30, whichever came first. The study ended on Day 29. The study protocol specified a tumor growth delay assay based on the median time-to-endpoint (TTE) in a treated group versus the control group. Tumors were measured using calipers twice per week, and each animal was euthanized for tumor progression (TP) when its tumor reached the 2000 mm^3 volume endpoint. The TTE for each mouse was calculated with the following equation:
[formula] where b is the intercept and m is the slope of the line obtained by linear regression of a log-transformed tumor growth data set. The data set is comprised of the first observation that exceeded the study endpoint volume and the three consecutive observations that immediately preceded the attainment of the endpoint volume. […] In instances in which the log-transformed calculated TTE preceded the day prior to reaching endpoint or exceeded the day of reaching tumor volume endpoint, a linear interpolation was performed to approximate TTE.
On Day 29, MTV (n) was defined as the median tumor volume of the number of animals, n, that survived to the last day and whose tumors had not reached the volume endpoint. Any animal determined to have died from treatment-related (TR) causes was to be assigned a TTE value equal to the day of death. Any animal that died from non-treatment-related (NTR) causes was to be excluded from the analysis. Treatment outcome was evaluated from tumor growth delay (TGD), which was defined as the increase in the median TTE for a treatment group compared to the control group: TGD=T−C expressed in days, or as a percentage of the median TTE of the control group:
[formula] wherein T is the median TTE for a treatment group and C is the median TTE for the control group. Tumor Growth Inhibition (TGI) Analysis […]

IRF = experiment: In vitro induction of IRF in THP1 dual cells (Lucia reporter, ISG54 promoter); assay type: cell-based
Method: Example 2. In Vitro Induction of IRF and NF-κβ in THP1 Cells
THP1 dual cells grown in complete media were treated with various concentrations of a compound of the present disclosure or DMSO control. Dual cells carry both secreted embryonic alkaline phosphatase (SEAP) reporter gene under the control of an IFN-β minimal promoter fused to five copies of the NF-kB consensus transcriptional response element to measure NF-kB activity and Lucia reporter gene under the control of an ISG54 minimal promoter to measure IRF activity. After 20 h incubation, IRF activity was assessed using QUANTI-luc to measure levels of Lucia and NF-kB activity was determined by measure SEAP levels at 620-655 nm. % induction was calculated from fold change in luminescence/absorbance compared to DMSO treated sample. […] EC50 values were generated by curve fit in Xlfit.
Cells grown in complete media were treated with various concentrations of a compound of the disclosure or DMSO control. Dual cells carry both secreted embryonic alkaline phosphatase (SEAP) reporter gene under the control of an IFN-β minimal promoter fused to five copies of the NF-kB consensus transcriptional response element to measure NF-kB activity and Lucia reporter gene under the control of an ISG54 minimal promoter to measure IRF activity. After 20 h incubation, IRF activity was assessed using QUANTI-luc to measure levels of Lucia and NF-kB activity was determined by measure SEAP levels at 620-655 nm. % induction was calculated from fold change in luminescence/absorbance compared to DMSO treated sample. EC50 values are generated by curve fit in Xlfit.

Compound | activity against wild type STING (wild type STING) | tumor growth compared to the vehicle ([1]; intravenously at 3 mg/kg) | EC50 (IRF; Homo sapiens, THP-1, 20 h incubation) | tumor growth compared to the vehicle ([1]; intravenously at 1 mg/kg and 3 mg/kg) | individual times to endpoint vs vehicle group ([1]; treatment groups 1 and 3 mg/kg i.v.) | tumor growth inhibition compared to the vehicle group ([1]; treatment groups 1 and 3 mg/kg i.v., Days 1, 5, 9, 14, TGI on Day 18) | time to reach the endpoint, longer than vehicle group ([1]; treatment groups 1 and 3 mg/kg i.v., Days 1, 5, 9, 14, endpoint tumor volume 2000 mm^3) | tumor volume distribution on day 18 vs vehicle group ([1]; treatment groups 1 and 3 mg/kg i.v., day 18) | percent of mice remaining (Kaplan-Meier) vs vehicle group ([1]; treatment groups 1 and 3 mg/kg i.v., day 21) | EC50 (IRF; 20 h incubation)
N.N.Nc1ncnc2c1ncn2[C@@H]1O[C@@H]2COP(=O)(S)O[C@@H]3[C@H](F)[C@@H](COP(=O)(O)O[C@H]2[C@H]1F)O[C@H]3n1ccc(=O)[nH]c1=O (some centres unmarked) [Compound 3] | possess activity | Tumor growth was slowed | < 50 nM | – | – | – | – | – | – | –
CCCCCCCCCCOc1ccc(C(=O)Oc2ccc(CSP3(=O)OC[C@H]4O[C@@H](n5cnc6c(N)ncnc65)[C@H](F)[C@@H]4OP(=O)(O)OC[C@H]4O[C@@H](n5ccc(=O)[nH]c5=O)[C@H](O3)[C@@H]4F)cc2)cc1 (some centres unmarked) [Compound 4] | possess activity | – | – | Tumor growth was slowed | took longer to reach the endpoint | at least 89% | at least 10 days | significantly smaller tumor volumes | greater percent of mice remaining | < 50 nM
